# Laboratory results: US12564193B2, “Isoxazoline-substituted benzamide derivative, and preparation method therefor and use thereof” (SHANDONG UNITED PESTICIDE INDUSTRY CO., LTD., priority 2020, dated 2026)
# Where two headings read alike, the source gives them in different places.
# Experiments:
# Format in all cases: in vivo
# [1] = test system: Frankliniella occidentalis; assay: Insecticidal activity, spray on pre-infested radish plants: Frankliniella occidentalis; settings: for Fatality rate on Frankliniella occidentalis (%): Table 3; for pest or weed control at 1 ppm / pest or weed control at 10 ppm / pest or weed control at 25 ppm: Frankliniella occidentalis, 144 h, read-out: fatality rate on Frankliniella occidentalis
# Protocol: (§1) For determination of insecticidal activity, the test method was as follows: a test solution with a desired concentration was prepared by dissolving a test compound sample in a suitable solvent (the kind of solvent was such as acetone, methanol, DMSO, etc., and was selected according to its dissolving ability for the sample). The test cell was composed of a small open container with 12-15 day old radish plants inside. The plants were pre-infested by placing 30-40 pests located on one leaf cut from the cultivated plant on one leaf of the test plant (leaf cutting method). As the leaves dehydrated, the pests moved on the test plants. After the pre-infesting, the soil of the test cells was covered with a layer of sand.
# The test method was as follows: the test was repeated for three times, and after spraying the formulated test compound, each test unit was allowed to dry for 1 hour, and then a black mesh cover was placed at the top. The test units were kept in a growth chamber at 25° C. and 70% relative humidity for 6 days. The mortality (fatality rate) of the insects was then visually assessed for each test unit, and the fatality rate was calculated as follows:
# [formula] (1) Test Results for the Control of Frankliniella occidentalis by Exemplary Example Compounds
# Mythimna separata = assay: Insecticidal activity, spray on pre-infested radish plants: Mythimna separata; settings: for Fatality rate on Mythimna separata (%): Table 3; for pest or weed control at 0.1 ppm / pest or weed control at 1 ppm / pest or weed control at 10 ppm: Mythimna separata, 144 h, read-out: fatality rate on Mythimna separata
# Protocol: as §1
# (§2) The test method was as follows: the test was repeated for three times, and after spraying the formulated test compound, each test unit was allowed to dry for 1 hour, and then a black mesh cover was placed at the top. The test units were kept in a growth chamber at 25° C. and 70% relative humidity for 6 days. The mortality (fatality rate) of the insects was then visually assessed for each test unit, and the fatality rate was calculated as follows: […]
# Chilo suppressalis = assay: Insecticidal activity, spray on pre-infested radish plants: Chilo suppressalis; settings: for Fatality rate on Chilo suppressalis (%): Table 3; for pest or weed control at 0.1 ppm / pest or weed control at 1 ppm / pest or weed control at 10 ppm: Chilo suppressalis, 144 h, read-out: fatality rate on Chilo suppressalis
# Protocol: as §1, §2
# Plutella xylostella = assay: Insecticidal activity, spray on pre-infested radish plants: Plutella xylostella; settings: for Fatality rate on Plutella xylostella (%): Table 3; for pest or weed control at 0.1 ppm / pest or weed control at 1 ppm / pest or weed control at 10 ppm: Plutella xylostella, 144 h, read-out: fatality rate on Plutella xylostella
# Protocol: as §1, §2
# Cnaphalocrocis medinalis = assay: Insecticidal activity, spray on pre-infested radish plants: Cnaphalocrocis medinalis; settings: 144 h, read-out: fatality rate on Cnaphalocrocis medinalis
# Protocol: as §1, §2
# Tetranychus cinnabarinus = assay: Acaricidal activity, slide immersion of female adult mites: Tetranychus cinnabarinus; settings: read-out: fatality rate on Tetranychus cinnabarinus
# Protocol: The test method was as follows: a test solution with a desired concentration was prepared by dissolving a test compound sample in a suitable solvent (the kind of solvent was such as acetone, methanol, DMSO, etc., and was selected according to its dissolving ability for the sample). A double-sided adhesive tape was cut into 2-3 cm long pieces, the pieces were attached to one end of a microscope slide, paper pieces on the adhesive tape were removed using tweezers, female adult mites which were consistent in size, bright in body color and lively in action were selected using a zero-size brush pen, the backs of the female adult mites were adhered to the double-sided adhesive tape (note: the adhesion should not cover mite feet, mite whiskers and mouthparts), with 4 rows of mites adhered to each piece and 10 heads of the mites adhered to each row.
# One end of the glass slide with the mites was immersed into a drug liquid, with slightly shaking for 5 seconds, and then the slide was taken out. The excess drug liquid around the mite body and is surroundings is quickly sucked off using absorbent paper. The slide was placed in the biochemical incubator described above, and the results were checked by using binoculars after 24 hours. The mites were slightly touched by using a brush pen, the mites with immobility in feet were considered to be dead, and the fatality rate was calculated. The fatality rate was calculated as follows: […]
# Pieris rapae = assay: Insecticidal activity, spray on pre-infested radish plants: Pieris rapae; settings: 144 h, read-out: fatality rate on Pieris rapae
# Protocol: as §1, §2
# Spodoptera litura = assay: Insecticidal activity, spray on pre-infested radish plants: Spodoptera litura; settings: 144 h, read-out: fatality rate on Spodoptera litura
# Protocol: as §1, §2
structure (smiles),measurement,setting,value
"Cc1cc(C2=NOC(c3cc(Cl)cc(Cl)c3)(C(F)(F)F)C2)ccc1C(=O)NCc1ccc(Cl)nc1 (stereo not drawn) [CK1, reference compound]",Fatality rate on Frankliniella occidentalis (%),[1]; 1 ppm,0%
same,Fatality rate on Frankliniella occidentalis (%),[1]; 10 ppm,40%
same,Fatality rate on Frankliniella occidentalis (%),[1]; 25 ppm,80%
same,Fatality rate on Mythimna separata (%),Mythimna separata; 0.1 ppm,10%
same,Fatality rate on Mythimna separata (%),Mythimna separata; 1 ppm,80%
same,Fatality rate on Mythimna separata (%),Mythimna separata; 10 ppm,100%
same,Fatality rate on Chilo suppressalis (%),Chilo suppressalis; 0.1 ppm,0%
same,Fatality rate on Chilo suppressalis (%),Chilo suppressalis; 1 ppm,50%
same,Fatality rate on Chilo suppressalis (%),Chilo suppressalis; 10 ppm,100%
same,Fatality rate on Plutella xylostella (%),Plutella xylostella; 0.1 ppm,15%
same,Fatality rate on Plutella xylostella (%),Plutella xylostella; 1 ppm,80%
same,Fatality rate on Plutella xylostella (%),Plutella xylostella; 10 ppm,100%
"Cc1cc(C2=NOC(c3cc(Cl)c(F)c(Cl)c3)(C(F)(F)F)C2)ccc1C(=O)NCc1ccc(Cl)nc1 (stereo not drawn) [Compound 1, N-((6-chloropyridin-3-yl)methyl)-4-(5-(3,5-dichloro-4-fluorophenyl)-5-(trifluoromethyl)-4,5-dihydroisoxazol-3-yl)-2-methylbenzamide]",pest or weed control at 0.1 ppm,Cnaphalocrocis medinalis,> 80%
same,pest or weed control at 1 ppm,Cnaphalocrocis medinalis,> 80%
same,pest or weed control at 10 ppm,Cnaphalocrocis medinalis,> 80%
same,Fatality rate on Frankliniella occidentalis (%),[1]; 1 ppm,95%
same,Fatality rate on Frankliniella occidentalis (%),[1]; 10 ppm,100%
same,Fatality rate on Frankliniella occidentalis (%),[1]; 25 ppm,100%
same,pest or weed control at 1 ppm,[1],> 80%
same,pest or weed control at 10 ppm,[1],> 80%
same,pest or weed control at 25 ppm,[1],> 80%
same,Fatality rate on Mythimna separata (%),Mythimna separata; 0.1 ppm,95%
same,Fatality rate on Mythimna separata (%),Mythimna separata; 1 ppm,100%
same,Fatality rate on Mythimna separata (%),Mythimna separata; 10 ppm,100%
same,pest or weed control at 0.1 ppm,Mythimna separata,> 80%
same,pest or weed control at 1 ppm,Mythimna separata,> 80%
same,pest or weed control at 10 ppm,Mythimna separata,> 80%
same,pest or weed control at 1 ppm,Tetranychus cinnabarinus; 24 h,> 80%
same,pest or weed control at 10 ppm,Tetranychus cinnabarinus; 24 h,> 80%
same,pest or weed control at 25 ppm,Tetranychus cinnabarinus; 24 h,> 80%
same,Fatality rate on Chilo suppressalis (%),Chilo suppressalis; 0.1 ppm,90%
same,Fatality rate on Chilo suppressalis (%),Chilo suppressalis; 1 ppm,100%
same,Fatality rate on Chilo suppressalis (%),Chilo suppressalis; 10 ppm,100%
same,pest or weed control at 0.1 ppm,Chilo suppressalis,> 80%
same,pest or weed control at 1 ppm,Chilo suppressalis,> 80%
same,pest or weed control at 10 ppm,Chilo suppressalis,> 80%
same,pest or weed control at 0.1 ppm,Pieris rapae,> 80%
same,pest or weed control at 1 ppm,Pieris rapae,> 80%
same,pest or weed control at 10 ppm,Pieris rapae,> 80%
same,pest or weed control at 0.1 ppm,Spodoptera litura,> 80%
same,pest or weed control at 1 ppm,Spodoptera litura,> 80%
same,pest or weed control at 10 ppm,Spodoptera litura,> 80%
same,Fatality rate on Plutella xylostella (%),Plutella xylostella; 0.1 ppm,100%
same,Fatality rate on Plutella xylostella (%),Plutella xylostella; 1 ppm,100%
same,Fatality rate on Plutella xylostella (%),Plutella xylostella; 10 ppm,100%
same,pest or weed control at 0.1 ppm,Plutella xylostella,> 80%
same,pest or weed control at 1 ppm,Plutella xylostella,> 80%
same,pest or weed control at 10 ppm,Plutella xylostella,> 80%
"Cc1cc(C2=NOC(c3cc(F)c(F)c(F)c3)(C(F)(F)F)C2)ccc1C(=O)NCc1ccc(Cl)nc1 (stereo not drawn) [Compound 2, N-((6-chloropyridin-3-yl)methyl)-2-methyl-4-(5-(trifluoromethyl)-5-(3,4,5-trifluorophenyl)-4,5-dihydroisoxazol-3-yl)benzamide]",pest or weed control at 0.1 ppm,"Cnaphalocrocis medinalis; dose 0.1 ppm, spray, 6 days",> 80%
same,pest or weed control at 1 ppm,"Cnaphalocrocis medinalis; dose 1 ppm, spray, 6 days",> 80%
same,pest or weed control at 10 ppm,"Cnaphalocrocis medinalis; dose 10 ppm, spray, 6 days",> 80%
same,Fatality rate on Frankliniella occidentalis (%),[1]; 1 ppm,90%
same,Fatality rate on Frankliniella occidentalis (%),[1]; 10 ppm,100%
same,Fatality rate on Frankliniella occidentalis (%),[1]; 25 ppm,100%
same,pest or weed control at 1 ppm,"[1]; dose 1 ppm, spray, 6 days",> 80%
same,pest or weed control at 10 ppm,"[1]; dose 10 ppm, spray, 6 days",> 80%
same,pest or weed control at 25 ppm,"[1]; dose 25 ppm, spray, 6 days",> 80%
same,Fatality rate on Mythimna separata (%),Mythimna separata; 0.1 ppm,85%
same,Fatality rate on Mythimna separata (%),Mythimna separata; 1 ppm,100%
same,Fatality rate on Mythimna separata (%),Mythimna separata; 10 ppm,100%
same,pest or weed control at 0.1 ppm,"Mythimna separata; dose 0.1 ppm, spray, 6 days",> 80%
same,pest or weed control at 1 ppm,"Mythimna separata; dose 1 ppm, spray, 6 days",> 80%
same,pest or weed control at 10 ppm,"Mythimna separata; dose 10 ppm, spray, 6 days",> 80%
same,pest or weed control at 1 ppm,"Tetranychus cinnabarinus; dose 1 ppm, immersion 5 seconds, checked after 24 hours",> 80%
same,pest or weed control at 10 ppm,"Tetranychus cinnabarinus; dose 10 ppm, immersion 5 seconds, checked after 24 hours",> 80%
same,pest or weed control at 25 ppm,"Tetranychus cinnabarinus; dose 25 ppm, immersion 5 seconds, checked after 24 hours",> 80%
same,Fatality rate on Chilo suppressalis (%),Chilo suppressalis; 0.1 ppm,80%
same,Fatality rate on Chilo suppressalis (%),Chilo suppressalis; 1 ppm,100%
same,Fatality rate on Chilo suppressalis (%),Chilo suppressalis; 10 ppm,100%
same,pest or weed control at 0.1 ppm,"Chilo suppressalis; dose 0.1 ppm, spray, 6 days",> 80%
same,pest or weed control at 1 ppm,"Chilo suppressalis; dose 1 ppm, spray, 6 days",> 80%
same,pest or weed control at 10 ppm,"Chilo suppressalis; dose 10 ppm, spray, 6 days",> 80%
same,pest or weed control at 0.1 ppm,"Pieris rapae; dose 0.1 ppm, spray, 6 days",> 80%
same,pest or weed control at 1 ppm,"Pieris rapae; dose 1 ppm, spray, 6 days",> 80%
same,pest or weed control at 10 ppm,"Pieris rapae; dose 10 ppm, spray, 6 days",> 80%
same,pest or weed control at 0.1 ppm,"Spodoptera litura; dose 0.1 ppm, spray, 6 days",> 80%
same,pest or weed control at 1 ppm,"Spodoptera litura; dose 1 ppm, spray, 6 days",> 80%
same,pest or weed control at 10 ppm,"Spodoptera litura; dose 10 ppm, spray, 6 days",> 80%
same,Fatality rate on Plutella xylostella (%),Plutella xylostella; 0.1 ppm,85%
same,Fatality rate on Plutella xylostella (%),Plutella xylostella; 1 ppm,100%
same,Fatality rate on Plutella xylostella (%),Plutella xylostella; 10 ppm,100%
same,pest or weed control at 0.1 ppm,"Plutella xylostella; dose 0.1 ppm, spray, 6 days",> 80%
same,pest or weed control at 1 ppm,"Plutella xylostella; dose 1 ppm, spray, 6 days",> 80%
same,pest or weed control at 10 ppm,"Plutella xylostella; dose 10 ppm, spray, 6 days",> 80%
Cc1cc(C2=NOC(c3cc(Cl)c(F)c(Cl)c3)(C(F)(F)F)C2)ccc1C(=O)NCc1cnccc1C(F)(F)F (stereo not drawn) [Compound 3],pest or weed control at 0.1 ppm,Cnaphalocrocis medinalis,> 80%
same,pest or weed control at 1 ppm,Cnaphalocrocis medinalis,> 80%
same,pest or weed control at 10 ppm,Cnaphalocrocis medinalis,> 80%
same,pest or weed control at 1 ppm,[1],> 80%
same,pest or weed control at 10 ppm,[1],> 80%
same,pest or weed control at 25 ppm,[1],> 80%
same,pest or weed control at 0.1 ppm,Mythimna separata,> 80%
same,pest or weed control at 1 ppm,Mythimna separata,> 80%
same,pest or weed control at 10 ppm,Mythimna separata,> 80%
same,pest or weed control at 1 ppm,Tetranychus cinnabarinus; 24 h,> 80%
same,pest or weed control at 10 ppm,Tetranychus cinnabarinus; 24 h,> 80%
same,pest or weed control at 25 ppm,Tetranychus cinnabarinus; 24 h,> 80%
same,pest or weed control at 0.1 ppm,Chilo suppressalis,> 80%
same,pest or weed control at 1 ppm,Chilo suppressalis,> 80%
same,pest or weed control at 10 ppm,Chilo suppressalis,> 80%
same,pest or weed control at 0.1 ppm,Pieris rapae,> 80%
same,pest or weed control at 1 ppm,Pieris rapae,> 80%
same,pest or weed control at 10 ppm,Pieris rapae,> 80%
same,pest or weed control at 0.1 ppm,Spodoptera litura,> 80%
same,pest or weed control at 1 ppm,Spodoptera litura,> 80%
same,pest or weed control at 10 ppm,Spodoptera litura,> 80%
same,pest or weed control at 0.1 ppm,Plutella xylostella,> 80%
same,pest or weed control at 1 ppm,Plutella xylostella,> 80%
same,pest or weed control at 10 ppm,Plutella xylostella,> 80%
Cc1cc(C2=NOC(c3cc(Cl)c(F)c(Cl)c3)(C(F)(F)F)C2)ccc1C(=O)NCc1cnc(Cl)cc1C(F)(F)F (stereo not drawn) [Compound 5],pest or weed control at 0.1 ppm,Cnaphalocrocis medinalis,> 80%
same,pest or weed control at 1 ppm,Cnaphalocrocis medinalis,> 80%
same,pest or weed control at 10 ppm,Cnaphalocrocis medinalis,> 80%
same,pest or weed control at 1 ppm,[1],> 80%
same,pest or weed control at 10 ppm,[1],> 80%
same,pest or weed control at 25 ppm,[1],> 80%
same,pest or weed control at 0.1 ppm,Mythimna separata,> 80%
same,pest or weed control at 1 ppm,Mythimna separata,> 80%
same,pest or weed control at 10 ppm,Mythimna separata,> 80%
same,pest or weed control at 1 ppm,Tetranychus cinnabarinus; 24 h,> 80%
same,pest or weed control at 10 ppm,Tetranychus cinnabarinus; 24 h,> 80%
same,pest or weed control at 25 ppm,Tetranychus cinnabarinus; 24 h,> 80%
same,pest or weed control at 0.1 ppm,Chilo suppressalis,> 80%
same,pest or weed control at 1 ppm,Chilo suppressalis,> 80%
same,pest or weed control at 10 ppm,Chilo suppressalis,> 80%
same,pest or weed control at 0.1 ppm,Pieris rapae,> 80%
same,pest or weed control at 1 ppm,Pieris rapae,> 80%
same,pest or weed control at 10 ppm,Pieris rapae,> 80%
same,pest or weed control at 0.1 ppm,Spodoptera litura,> 80%
same,pest or weed control at 1 ppm,Spodoptera litura,> 80%
same,pest or weed control at 10 ppm,Spodoptera litura,> 80%
same,pest or weed control at 0.1 ppm,Plutella xylostella,> 80%
same,pest or weed control at 1 ppm,Plutella xylostella,> 80%
same,pest or weed control at 10 ppm,Plutella xylostella,> 80%
